# Experimental data as given in the supplement of paper PMC10307832.
# Columns and labels:
# Test in all cases: relative viability (nuclei count vs DMSO), 5 days (fraction); higher = more cells survive
# AZ628 + Trametinib = compound: CC1=C(C=C(C=C1)NC(=O)C2=CC(=CC=C2)C(C)(C)C#N)NC3=CC4=C(C=C3)N=CN(C4=O)C [AZ628] + CC(=O)Nc1cccc(-n2c(=O)n(C3CC3)c(=O)c3c(Nc4ccc(I)cc4F)n(C)c(=O)c(C)c32)c1 [Trametinib] (partner 0.02 µM)
# In short: (§1)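 A single step with final 0.05% Triton X-100, 1% formaldehyde and 1 ug/ml Hoechst fixed the cells and stained nuclei 5 days after treatment. Lung cancer cell lines in 1536-well plates had been treated by pin tool the day after seeding with one drug alone or a fixed anchor-drug dose plus five library-drug doses (not always all listed) in √10 steps, and nuclei were counted on 4× images. Relative viability is the ratio of nuclei in treated wells to nuclei in vehicle wells, taken as the median of duplicate plates.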
# Darinaparsin + Lapatinib = compound: C[As](C)SC[C@H](NC(=O)CC[C@H](N)C(=O)O)C(=O)NCC(=O)O [Darinaparsin] + CS(=O)(=O)CCNCc1ccc(-c2ccc3ncnc(Nc4ccc(OCc5cccc(F)c5)c(Cl)c4)c3c2)o1 [Lapatinib] (partner 2 µM)
# In short: as §1
# [1] = compound: C[As](C)SC[C@H](NC(=O)CC[C@H](N)C(=O)O)C(=O)NCC(=O)O [Darinaparsin] + CC(=O)c1c(C)c2cnc(Nc3ccc(N4CCNCC4)cn3)nc2n(C2CCCC2)c1=O [Palbociclib] (partner 0.5 µM)
# In short: as §1
# QS11 + Tozasertib = compound: C1CC2=C(C1)C=C(C=C2)OC3=NC(=C4C(=N3)N(C=N4)CC5=CC=C(C=C5)C6=CC=CC=C6)N[C@@H](CC7=CC=CC=C7)CO [QS11] + Cc1cc(Nc2cc(N3CCN(C)CC3)nc(Sc3ccc(NC(=O)C4CC4)cc3)n2)n[nH]1 [Tozasertib] (partner 0.1 µM)
# In short: as §1
# QS11 + Vorinostat = compound: C1CC2=C(C1)C=C(C=C2)OC3=NC(=C4C(=N3)N(C=N4)CC5=CC=C(C=C5)C6=CC=CC=C6)N[C@@H](CC7=CC=CC=C7)CO [QS11] + O=C(CCCCCCC(=O)Nc1ccccc1)NO [Vorinostat] (partner 1 µM)
# In short: as §1
cell line,measurement,setting,value
LCLC-97TM1,relative viability,AZ628 + Trametinib; first compound 0.08 µM,0.126
same,relative viability,AZ628 + Trametinib; first compound 0.253 µM,0.118
same,relative viability,AZ628 + Trametinib; first compound 0.8 µM,0.114
same,relative viability,AZ628 + Trametinib; first compound 2.53 µM,0.0994
same,relative viability,AZ628 + Trametinib; first compound 8 µM,0.116
same,relative viability,Darinaparsin + Lapatinib; first compound 0.08 µM,0.782
same,relative viability,Darinaparsin + Lapatinib; first compound 0.8 µM,0.579
same,relative viability,Darinaparsin + Lapatinib; first compound 2.53 µM,0.803
same,relative viability,Darinaparsin + Lapatinib; first compound 8 µM,0.867
same,relative viability,[1]; first compound 0.08 µM,0.317
same,relative viability,[1]; first compound 0.8 µM,0.2
same,relative viability,[1]; first compound 2.53 µM,0.237
same,relative viability,[1]; first compound 8 µM,0.251
same,relative viability,QS11 + Tozasertib; first compound 0.08 µM,0.2
same,relative viability,QS11 + Tozasertib; first compound 0.253 µM,0.242
same,relative viability,QS11 + Tozasertib; first compound 2.53 µM,0.199
same,relative viability,QS11 + Tozasertib; first compound 8 µM,0.146
same,relative viability,QS11 + Vorinostat; first compound 0.253 µM,0.722
same,relative viability,QS11 + Vorinostat; first compound 2.53 µM,0.615
same,relative viability,QS11 + Vorinostat; first compound 8 µM,0.85
